Columns and labels:
Format in all cases: cell-based, mouse
[1] = test system: C/EBPα; test: Real-time RT-PCR, C/EBPα mRNA in 3T3-L1; details: 8 days
Text: Realtime RT-PCR: Real-time reverse transcriptase polymerase chain reaction (RT-PCR) analysis was used to measure mRNA expression of genes SREBP-1, PPARγ, C/EBPα, low density lipoprotein receptor (LDLR), Adiponectin, and fatty acid synthase (FAS) under the control of β-actin. Briefly, total RNA was isolated from 3T3-L1 cells following treatment for 8 days with Trizol reagent (Invitrogen, Carlsbad, Calif., USA) according to the manufacturer's instruction. RNA was quantified using absorption of light at 260 nm, and sample purity was checked by OD 260 nm/280 nm. 0.8 μg of total RNA from each sample was used for reverse transcription reaction using the TaqMan Reverse Transcription Reagents (Applied Biosystems, Foster City, Calif., USA) according to the manufacturers' instructions. PCR was done using the SYBR green Master Mix (Applied Biosystems, Foster City, Calif., USA) according to the manufacturers' instructions. The temperature cycling conditions of amplification were as follows: an initial step of denaturation at 95° C. for 10 min, 40 cycles of denaturation at 95° C. for 30 s, annealing at 55° C. for 30 s, and elongation at 72° C. for 30 s. Realtime RT-PCR was performed using Mx3000P Realtime Thermocyclers (Statagene, La Jolla, Calif., USA). The relative mRNA levels of these genes were calculated by 2-delta delta CT method and normalized with control groups.

[2] = test system: 3T3-L1 cells; test: MTT assay, 3T3-L1 viability during differentiation with clozapine, risperidone, berberine (Example 2); details: day 8
Procedure: Cell culture and drug treatment: 3T3-L1 cells (American Type Culture Collection, Manassas, Va., USA) were cultured at 37° C. in a humidified 5% CO2 atmosphere and grown in a DMEM (Sigma-Aldrich, St. Louis, Mo. USA) supplemented with 10% Fetal Bovine Serum (FBS, Atlanta Biologicals Corp., Lawrenceville, Ga., USA), 100 units/ml penicillin and 100 μg/ml streptomycin. Differentiation was induced by addition of 167 nM insulin, 520 μM isobutylmethylxanthine (IBMX), and 1 μM dexamethasone for 2 days and then only with 167 nM insulin for 6 days. Detailed protocol was described as our previous report (Hu et al., Phytomedicine (2009) 16(9):864-873).
Medium was removed after differentiation and treatment for 8 days, MTT (Methylthiazolyldiphenyl—tetrazolium bromide 0.5 mg/ml, 50 μl/well) was added.

[3] = test system: SREBP-1; test: Immunoblotting, SREBP-1 protein in 3T3-L1; details: 8 days
Procedure: Immunoblotting: Protein expression of SREBP-1, PPARγ, and C/EBPα relative to […] was assessed by Western Blot. Total proteins were isolated from 3T3-L1 cells treated with compounds or vehicles for 8 days. The cells were washed twice with PBS, lysed in a HEPES-Tx-PI buffer ([…], 5 mM EDTA, 350 mM Sucrose, 1 μg/ml leupeptin, 1 μg/ml pepstatin, 1% Triton-X, 1 mM PMSF), processed with 25G needles and centrifuged at 12,000 rpm for 5 min. Protein concentration was determined using the Micro BCA Protein Assay Kit (Fisher Scientific, Pittsburgh, Pa., USA) following the manufacturers instructions. 25 μg proteins were loaded and separated by electrophoresis using the BioRad Electrophoretic System (65 V for 7 hour). The proteins were then transferred to nitrocellulose membranes at 40 V overnight. The membrane was blocked for 1 hour at room temperature in 5% nonfat milk in Tris-buffered saline (TBS), then washed with Tween-20-TBS (TTBS, 0.1% Tween-20) three times (15 min, 5 min, 5 min), followed by incubation with primary antibodies SREBP-1 (dilution 1:200), PPARγ (dilution 1:200), C/EBPα (dilution 1:200) (all purchased from Santa Cruz Biotechnology, Santa Cruz, Calif., USA) and […] (dilution 1:1000, Sigma-Aldrich, St. Louis, Mo., USA) at room temperature for 2 hours. […]

[4] = test system: GATA-3; test: Immunoblot, GATA-3 protein in 3T3-L1 cells; details: DM + 1, 2, 4, 8 μM, 8 days, p<0.05
Procedure: Immunoblot Analysis: GATA-2 and GATA-3 protein expression were assessed by Western blot. […] The cells were washed twice with PBS, lysed in a lysis buffer (HEPES-Tx-PI buffer: 10 mM HEPES, 5 mM EDTA, 350 mM Sucrose, 1 ug/ml leupeptin, 1 ug/ml pepstatin, 1% Triton-X, 1 mM PMSF, diluted in water), processed with a 25G needle and centrifuged at 10,000 rpm for 5 min. Protein concentration was determined using the […] according to the Pierce Protein Assay Protocol. Total protein (50 μg) was used for GATA-2 and GATA-3 analysis and was separated by electrophoresis using BioRad Electrophoretic System (60 V for 1 hour followed by 90 V for 5 hours). The protein was then transferred to nitrocellulose membranes at 35 V overnight. The membrane was blocked for 1 hour at room temperature in 5% nonfat milk in Tris-buffered saline (TBS), then washed with Tween-20-TBS (TTBS, 0.1% Tween-20) three times (15 min, 5 min, 5 min), followed by incubation with primary antibodies of GATA-2 (dilution 1:500), GATA-3 (dilution 1:500), β-Actin (dilution 1:1000) at room temperature for 2 hours. The membrane was rinsed three times (15 min, 5 min, 5 min), then incubated at room temperature for 1 hour with Horseradish peroxidase-conjugated second antibody (1:10,000). The membrane was then incubated in ECL reagent for 1 minute. Protein was visualized using UVP image analysis system.

[5] = test system: PPARγ; test: Immunoblotting, PPARγ protein in 3T3-L1; details: 8 days
Procedure: Immunoblotting: Protein expression of SREBP-1, PPARγ, and C/EBPα relative to 3-actin was assessed by Western Blot. Total proteins were isolated from 3T3-L1 cells treated with compounds or vehicles for 8 days. The cells were washed twice with PBS, lysed in a HEPES-Tx-PI buffer (910 mM HEPES, 5 mM EDTA, 350 mM Sucrose, 1 μg/ml leupeptin, 1 μg/ml pepstatin, 1% Triton-X, 1 mM PMSF), processed with 25G needles and centrifuged at 12,000 rpm for 5 min. Protein concentration was determined using the Micro BCA Protein Assay Kit (Fisher Scientific, Pittsburgh, Pa., USA) following the manufacturers instructions. 25 μg proteins were loaded and separated by electrophoresis using the BioRad Electrophoretic System (65 V for 7 hour). The proteins were then transferred to nitrocellulose membranes at 40 V overnight. The membrane was blocked for 1 hour at room temperature in 5% nonfat milk in Tris-buffered saline (TBS), then washed with Tween-20-TBS (TTBS, 0.1% Tween-20) three times (15 min, 5 min, 5 min), followed by incubation with primary antibodies SREBP-1 (dilution 1:200), PPARγ (dilution 1:200), C/EBPα (dilution 1:200) (all purchased from Santa Cruz Biotechnology, Santa Cruz, Calif., USA) and 3-actin (dilution 1:1000, Sigma-Aldrich, St. Louis, Mo., USA) at room temperature for 2 hours. […]

[6] = 8 μM berberine + 15 μM clozapine
[7] = 8 μM berberine + 50 μM risperidone

COc1ccc2cc3[n+](cc2c1OC)CCc1cc2c(cc1-3)OCO2.[Cl-] [berberine, Berberine (Chloride Form)]
decrease of C/EBPα mRNA expression vs clozapine treated group [1, 6]: 94.7% | decrease of C/EBPα mRNA expression vs risperidone treated group [1, 7]: 96.4% | decrease of cell viability vs no berberine treated group ([2]; 8 μM berberine combined with 0 μM clozapine): 22.3% | decrease of cell viability vs no berberine treated group ([2]; 8 μM berberine combined with 0 μM risperidone): 17.8% | decrease of cell viability vs no berberine treated group ([2]; 8 μM berberine combined with 15 μM clozapine): 16.5% | decrease of cell viability vs no berberine treated group ([2]; 8 μM berberine combined with 25 μM risperidone): 19.5% | decrease of cell viability vs no berberine treated group ([2]; 8 μM berberine combined with 30 μM clozapine): 15% | decrease of cell viability vs no berberine treated group ([2]; 8 μM berberine combined with 50 μM risperidone): 20.2% | decrease of SREBP-1 protein expression vs clozapine treated group [3, 6]: 64.6% | decrease of SREBP-1 protein expression vs risperidone treated group [3, 7]: 60.4% | GATA-3 protein expression [4]: increase | decrease of PPARγ protein expression vs clozapine treated group [5, 6]: 76% | decrease of PPARγ protein expression vs risperidone treated group [5, 7]: 85.7%
